Measured values published in patent US20210386791A1, “METHODS OF CELLULAR REPROGRAMMING” (TissueTech, Inc., priority 2018, published 2021).

Tests used:
Type in all cases: cell-based
[1] = system: human corneal fibroblasts (HCF); assay: P3 HCF on plastic with or without immobilized HA or HC-HA/PTX3, with or without TGFβ1: mRNA, ELISA, Western blot, immunostaining
Method: A total of 89 human corneas from individuals aged 18-76 years and maintained at 4° C. in Optisol (Chiron Vision, Irvine, Calif.) for less than 7 days after death were obtained from the Florida Lions Eye Bank (Miami, Fla.) and handled according to the declaration of Helsinki. HCF were isolated and cultured. Epithelial and endothelial cells were removed from corneas, the stroma was cut into cubes of approximately 1 mm^3, incubated in 2 mg/ml collagenase for 16 h at 37° C., and then placed in a culture medium consisting of Dulbecco's modified Eagle's medium (DMEM) supplemented with 10% fetal bovine serum containing […]. The culture medium was changed twice a week. The morphology of the cells was monitored by Nikon Eclipse TS 100 microscope (Melville, N.Y.). Cells cultured to passage 3 (P3) were used for all experiments.
Human corneal fibroblasts (P3) were seeded on plastics with or without immobilized HC-HA/PTX3 complex for 72 h in DMEM+10% FBS, then serum starved for 24 h and treated with or without TGFβ1 for 24 h before being harvested for mRNA quantitation or immunostaining. For determination of protein of TGFβ receptor or p75NTR, the cells were treated with or without TGF-β1 for 48 h before collection of protein samples because the protein expression lags behind mRNA expression. For TGF-β1 ELISA, the cells were treated with or without TGF-β1 for 24 h, and then cultured in the fresh medium for another 24 h. The supernatants were collected for TGFβ1 ELISA. For TGFβ2 and TGFβ3 ELISA, the cells were treated with or without TGFβ1 for 48 h. Certain HCF were seeded on glass in DMEM+10% FBS for 24 h, then in DMEM+ITS (insulin-transferrin-selenium) for 24 h, treated with/without PBS or hyaluronic acid (HA) or HC-HA/PTX3±TGFβ1 (10 ng/ml)±Marimastat (10 μM) or ±DAPT (10 μM) or ±both for 0, 5, 15, 30 and 45 minutes before being harvested for immunostaining of CD44-ICD, JNK1, Cyclin D1 and p75NTR and for 5 minutes before being harvested for Western blotting of cytoplasmic and nuclear CD44-ICD, active MT1-MMP, and active γ-secretase after compartmental separation of the cellular components.
Total RNAs were extracted using RNeasy Mini Kit and were reverse transcribed using High Capacity Reverse Transcription Kit (Applied Biosystems). cDNA obtained was amplified by real-time RT-PCR using specific primer-probe mixtures and DNA polymerase in 7000 Real-time PCR System (Thermo-Fisher Scientific, Carlsbad, Calif.). Real-time RT-PCR profile consisted of 10 minutes of initial activation at 95° C., followed by 40 cycles of 15 seconds denaturation at 95° C., and 1 min annealing and 1 min extension at 60° C. The genuine identity of each PCR product was confirmed by the size determination using 2% agarose gels followed by ethidium bromide staining together with PCR marker according to EC3 Imaging System (BioImaging System, Upland, Calif.).
The Quantikine Human ELISA Kits of TGFβs were used for determination of TGFβs following the manufacturer's instructions (R and D Systems, Minneapolis, Minn.).
HCF, induced human corneal endothelial cells (HCEC), and HCEC monolayer cultures were air-dried and fixed in 4% formaldehyde, pH 7.0, for 15 min at room temperature, rehydrated in PBS, incubated with 0.2% Triton X-100 for 15 min, and rinsed three times with PBS for 5 min each. After incubation with 2% BSA to block non-specific staining for 30 min, they were incubated with the desired first antibody (all at 1:50 dilution) for 16 h at 4° C. After three washes with PBS, they were incubated with corresponding Alexa-Fluor-conjugated secondary IgG (all 1:100 dilutions) for 60 min. The samples were then counterstained with Hoechst 33342 and analyzed with Zeiss LSM 700 confocal microscope (Thornhood, N.Y.). Corresponding mouse and rabbit sera were used as negative controls for primary monoclonal and polyclonal antibodies, respectively. […]

[2] = system: human corneal myofibroblasts; assay: Reversal of TGFβ1-induced human corneal myofibroblasts on immobilized HC-HA/PTX3; conditions: day 4 and day 7
Method: HCF were cultured in DMEM+10% FBS until 70% confluence. The cells were serum-starved for 1 day and treated with 10 ng/ml TGFβ1 for 3 days to induce myofibroblasts.
To reverse fibroblasts or myofibroblasts into keratocytes, fibroblasts or myofibroblasts were cultured on immobilized HC-HA/PTX3 in DMEM+10% FBS for 3 days using the samples from the cells on plastic and HA as the controls. Some of the cell cultures were extended to up to 7 days of culture to monitor the expression of α-SMA formation. […]
The samples of human corneal fibroblasts, myofibroblasts and corneal keratocytes were air-dried and fixed in 4% formaldehyde, pH 7.0, for 15 min at room temperature, rehydrated in PBS, incubated with 0.2% Triton X-100 for 15 min, and rinsed 3 times with PBS for 5 min each. […] The samples were then counterstained with Hoechst 33342 and analyzed in Zeiss LSM 700 confocal microscope (Thornhood, N.Y.). […]
Cell lysates were prepared in RIPA buffer and resolved on 4-15% (w/v) gradient acrylamide gels under denaturing and reducing conditions for Western blotting. […] Immunoreactive proteins were detected with Western Lighting Chemiluminescence (PerkinElmer, Waltham, Mass.).

[3] = system: human corneal fibroblasts (HCF); assay: Timing course analysis of SDF1/CXCR4 and BMP signaling in HCF; conditions: time course

**Q.** For hyaluronic acid [HA], which “expression of NC markers (p75NTR, HNK1, Sox9, KLF4, Snail1, MSX1)” value ([1]; absence of TGFβ1) is on record?
**A.** only upregulated expression of HNK1

**Q.** What about the “keratocan mRNA and protein” value ([1]; absence of TGFβ1) of the same substance?
**A.** upregulated mRNA but not protein of keratocan

**Q.** And the “TGFβ1 mRNA and protein level” value ([1]; after exogenous TGFβ1 (10 ng/ml))?
**A.** upregulated

**Q.** What about the “nuclear translocation of pSMAD2/3 and cytoplasmic expression of α-SMA” value ([1]; exogenous TGFβ1) of the same substance?
**A.** caused nuclear translocation of pSMAD2/3 and positive cytoplasmic expression of α-SMA

**Q.** And the “cell shape / aggregation of P3 HCF” value ([1]; immobilized substrate, DMEM+10% FBS, 24 h)?
**A.** spindle in shape

**Q.** And the keratocan upregulation ([1]; presence of TGF-β1)?
**A.** upregulation disappeared

**Q.** What about the “NC marker mRNA, p75NTR protein and p75NTR nuclear translocation” value ([1]; with TGFβ1) of the same substance?
**A.** further upregulated without p75NTR nuclear translocation

**Q.** What about the “staining of α-SMA” value [2] of the same substance?
**A.** retained their characteristic staining of α-SMA

**Q.** What about the “time of promoted CXCR4 mRNA expression” value [3] of the same substance?
**A.** not HA

**Q.** And the “time to aggregation in HCF” value [3]?
**A.** not HA
